Values quoted from earlier work, collected in patent US20090197893A1 (Bristol-Myers Squibb Company, priority 2005, published 2009).
Like-named read-outs stand apart in the source and are kept apart here.

Key:
[1] = test system: imatinib-resistant BCR-ABL mutants; conditions: cited from earlier work
[2] = test system: wild-type BCR-ABL; conditions: cited from earlier work
[3] = test system: CML patients; conditions: cited from earlier work; for patients who developed resistance to imatinib: 4 years of follow-up

SMILES | imatinib-resistant BCR-ABL mutants against which significantly active [1] | IC50 [2] | patients who developed resistance to imatinib ([3]; AP CML patients) | patients who developed resistance to imatinib ([3]; BC patients) | estimated 2-year incidence of resistance ([3]; blastic phase) | estimated 2-year incidence of resistance ([3]; chronic phase post-interferon-α failure)
Cc1cn(-c2cc(NC(=O)c3ccc(C)c(Nc4nccc(-c5cccnc5)n4)c3)cc(C(F)(F)F)c2)cn1 [AMN107] | 32/33 | […] | – | – | – | –
Cc1ccc(NC(=O)c2ccc(CN3CCN(C)CC3)cc2)cc1Nc1nccc(-c2cccnc2)n1 [imatinib] | – | – | 75% | 95% | 80% | 10%
